Data from a melting point compilation (Tetko et al.; mined from patent text by program, amines drawn as free bases though some values may be those of a salt).

| Compound | melting point [°C] |
| --- | --- |
| COc1ccc(N(C(=O)c2ccc3ccccc3c2)c2ccc(OCc3ccccc3)cc2)cc1 | 175 to 176 |
| COc1ccnc(CCc2nc3cc(I)cnc3[nH]2)c1 | 207 to 208 |
| Nc1nc(N)nc(-c2ccc3c(c2)OCCO3)n1 | 241 to 244 |
| CC(=O)OC1(c2ccccc2)C=CC(=O)C=C1 | 100 to 101 |
| CC(C)(C)OC(=O)N1CCCC(c2nc(-c3ccncc3)c(-c3ccc(F)cc3)[nH]2)C1 (stereo unspecified) | 193 to 194 |
| CC(=O)S[C@H]1CC[C@H](/C=C/C=C/c2ccc(C(F)(F)F)cc2)CC1 | 113 to 115 |
| COCCOc1cc2ncnc(NC3=CC(=O)C4(Cc5ccccc5)OC4C3=O)c2cc1OC (stereo unspecified) | 104 to 108 |
| O=C(O)CCc1nc(-c2cc3ccccc3o2)cs1 | 203 to 205 |
| COc1ccnc(CCc2nc3cc(-c4ccc(OCc5ccccc5)cc4)cnc3[nH]2)c1 | 161 to 162 |
| CCCc1cc(Cl)c2oc(Cc3ccc(Cl)cc3)c(C)c2c1O | 76 to 77 |
| CCCc1c(OCCCOc2cccc3c2CCCC3)ccc2c1OC(CCC=O)(CCC=O)CC2=O | 107 to 108 |
| Cc1cc(C)cc(OC(=O)C(c2ccccc2)N2CCN(C3CCN(C(=O)c4cc(C(F)(F)F)cc(C(F)(F)F)c4)C(Cc4ccccc4)C3)CC2)c1 (stereo unspecified) | 88.1 |
| NC1=NN(c2nc3ccccc3s2)C(c2ccc(Cl)cc2)C1 (stereo unspecified) | 273 to 275 |
| C[C@H]1[C@H](N(C)C(=O)C(F)(F)F)CN1c1c(F)cc2c(=O)c(C(=O)O)cn(C3CC3)c2c1F (relative stereo) | 246 to 249 |
| Cc1ncncc1C(=O)Nc1ccc(-n2nc(C(F)(F)F)cc2C2CC2)c(F)c1 | 101 to 103 |
| Cc1cc(C)c(C)c(-c2cc3cnc(N)nc3nc2N)c1C | 327 to 331 |
| CC(=O)SCC(CC(C)C)C(=O)O (stereo unspecified) | 42 to 47 |
| CC1(C)CC(=O)C(c2c[nH]c3ccccc23)C(=O)C1 | 173 |
| COC=C(C(=O)OC)c1ccccc1CSc1ccccc1 | 71 |
| COc1cc(-c2nc(-c3cc(OC)c(OCc4ccccc4)c(OC)c3)c(-c3cc(OC)c(OCc4ccccc4)c(OC)c3)o2)cc(OC)c1OCc1ccccc1 | 80 to 120 |
| [O-][N+]1=C(c2ccccc2F)c2cc(Cl)ccc2-c2ncncc2C1 | 185 to 186 |
| CCOC(=O)C(C1c2ccccc2Sc2ccccc21)[N+](=O)[O-] (stereo unspecified) | 111 to 115 |
| O=C1N(N2CCCCC2)c2ccccc2C1(Cc1ccccc1)Cc1ccccc1 | 94 to 96 |
| CC(C)Oc1cc(Oc2ccc(C(F)(F)F)cn2)ccc1CCCOc1cc(CCC(=O)O)n(C)n1 | 128 to 130 |

| Compound | melting point [°C] |
| --- | --- |
| COc1ccc(C=C2N=C(c3ccc([N+](=O)[O-])cc3)OC2=O)cc1OC | 265 to 267 |
| Cc1cc([N+](=O)[O-])ccc1N1CCOCC1=O | 113 to 114 |
| Cc1nnc(CNc2c(C)cccc2C)o1 | 134 to 135 |
| c1ccc2c(c1)nc(Nc1ccc3cc[nH]c3c1)c1nc(C3CCCC3)[nH]c12 | 260 to 261 |
| Brc1ccc(OC2CCN(c3nc4cccc5c4n3CCC5)CC2c2ccccc2)cc1 (stereo unspecified) | 188 to 189 |
| CCn1c(C(c2ccccc2)c2ccccc2)nc(-c2ccncc2)c1-c1ccc(Cl)cc1 | 199 to 200 |
| CC1CCCN(S(=O)(=O)c2cc(Cl)cc(C(=O)O)c2)C1 (stereo unspecified) | 177 to 179 |
| O=C1NCc2cc(-c3cnc4[nH]c(=O)n(CC5CCCCC5)c4n3)ccc21 | 337 to 339 |
| Nc1cccc(O)c1NC(=O)Nc1cccc(C(F)(F)F)c1 | 188 to 189 |
| Nc1ccc(SC(F)(F)F)cc1[N+](=O)[O-] | 86 |
| CC(C)(C)C12OOC1(c1ccc(C(=O)N3CCOCC3)c(O)c1)OCC2(C)C (stereo unspecified) | 114 to 116 |
| Fc1ccc(-c2ccco2)cc1 | 84 to 86 |
| O=C(NCc1cccs1)Nc1cc(N2CC(c3ccccc3)CC2=O)ccn1 (stereo unspecified) | 179 to 180 |
| CON=C(C1=Nc2ccc(Cl)cc2C(c2ccccc2F)=[N+]([O-])C1)[N+](=O)[O-] | 207 to 209 |
| CNc1ccc(N)cc1[N+](=O)[O-] | 115 to 116 |
| FN(F)CC1(CN(F)F)COC1 | 43.5 to 44.5 |
| O=C1C=C(Nc2ccccc2)C(=O)c2nccnc21 | 203 to 205 |
| Cn1c2ccccc2c2ccc3c(c21)C(=O)OC3=O | > 300 |
| CCN1CC(OCC2(C)CC2)(C(F)(F)F)c2cc(Cl)ccc2NC1=O (stereo unspecified) | 171 to 172 |
| CCN(c1cc(C)c(C)c2cc(-c3ncc(CO)s3)[nH]c12)S(=O)(=O)c1cccs1 | 189 to 190 |
| COc1cc(Cl)ccc1-c1ccc(C(C)=O)cc1[N+](=O)[O-] | 104 to 106 |
| CCOc1ccccc1C(=O)Nc1ccc(C(=O)N2CCC(F)(F)/C(=C\C(=O)N3CCOCC3)c3ccccc32)cc1 | 144 to 147 |
| Cc1ccc(C(=O)Nc2ccccc2)cc1NC(=S)Nc1cc(Cl)cc(Cl)c1 | 182 to 184 |
| CN1CC(CCn2ccnc2)Oc2ncccc2C1=O (stereo unspecified) | 150 to 152 |

| Compound | melting point [°C] |
| --- | --- |
| CCCC(C)(Cl)Cn1ncc(OCc2ccc(CC)cc2)c(Cl)c1=O (stereo unspecified) | 81 to 83 |
| CCc1c(-c2ccc(OCc3ccccc3)cc2)c2c3c(c4c(OCc5ccccc5)ccc1n42)C(=O)OC3=O | 229 to 231 |
| CCCc1ccc(OCCCc2cc3c(cc2O)CCO3)cc1 | 101 to 102 |
| O=Cc1c(O)c(Cl)cc(Cl)c1OCCCCC(=O)O | 85 to 87 |
| C#CCn1nnc2cc3c(=O)n(C(C)Cn4ncnn4)nnc3cc2c1=O (stereo unspecified) | 209 to 211 |
| COc1ccc(NC(=O)c2ccccc2)cc1NCc1ccc2c(c1)OCCO2 | 174 to 175 |
| CCCCC(=O)c1ccc(NC(C)=O)cc1O | 113 |
| Cc1ccccc1NC(=O)CN1C[C@@H](C)N(S(=O)(=O)c2cccc(N)c2)[C@@H](C)C1 | 202 to 203 |
| Cn1c(COc2ccc(CC3SC(=O)NC3=O)cc2)nc2ccc(OCc3ccccc3)nc21 (stereo unspecified) | 210 to 211 |
| Cn1cncc1C(O)c1ccc2c(c1)c(-c1cccc(Cl)c1)cc(=O)n2C (stereo unspecified) | 167 |
| COc1cccc(CCC(=O)C2C(=O)CCC2=O)c1O | 108 to 109 |
| CCC(O)C1CCNCC1 (stereo unspecified) | 50 |
| COc1ccc(-c2nnn(-c3ccc(C(F)(F)F)cc3Cl)c2CBr)cc1 | 152 to 154 |
| COc1cccc(Cc2n[nH]c3c2c(=O)n(-c2ccccc2)c2ncccc32)c1 | 234 to 236 |
| C=CC(=O)Nc1ccc2c(Nc3cccc(C)c3)ncnc2c1 | 270 |
| CC(C)n1cc(-c2cnc3c(c2)nnn3Cc2ccc3ncccc3c2)cn1 | 126 to 128 |
| Cc1cccc(C(O)(c2cccc(C)c2)c2cccc(-c3ccc4ccccc4c3)c2)c1 | 58 to 60 |
| CCOc1cc(OC)c2cc(C(=O)CN=[N+]=[N-])ccc2n1 | 129 to 132 |
| O=C(CCCc1cccs1)N[C@H](Cc1ccc(C(F)(F)F)cc1)[C@@H](O)c1cccc2ccccc12 (racemic) | 139 to 140 |
| CN(C(=O)OC(C)(C)C)c1cc(Oc2ccc(-c3ccc(OCc4ccccc4)cc3)cc2)ccc1[N+](=O)[O-] | 123 to 125 |
| CC[C@H](C)[C@H](NS(=O)(=O)c1cccc2ccccc12)C(=O)N[C@@H](Cc1c[nH]c2ccccc12)C(=O)O | 167 to 168 |
| CC(C)(C)OC(=O)N1CCC(c2nc(-c3ccc(-c4ccccc4)cc3)c[nH]2)CC1 | 120 to 122 |
| COc1ccc(CC2CCC3NC(=O)CCC3C2)cc1 (stereo unspecified) | 194 to 196 |
| CC(C)NCC(O)COc1ccc2c(=O)cc(-c3ccc(O)c(O)c3)oc2c1 (stereo unspecified) | 187 |

| Compound | melting point [°C] |
| --- | --- |
| O=c1ccn(C2CC(O)C(CNC(c3ccccc3)(c3ccccc3)c3ccccc3Cl)O2)c(=O)[nH]1 (stereo unspecified) | 129 to 131 |
| O=C1CCCc2nc(C#Cc3cccnc3)ccc21 | 120 to 122 |
| Cn1cc(C(=O)NCc2ccc(Cl)cc2)c(=O)c2cc(CN3CCOCC3)cc(C#CCn3cnc(Cl)c3Cl)c21 | 178 to 181 |
| CCc1c(C)nc(-c2ncc([N+](=O)[O-])n2C)nc1C | 110 |
| COc1nc(Cl)ccc1C=O | 62 to 64 |
| CC(C)[C@H](NC(=O)N(C)Cc1nc2ccccc2[nH]1)C(=O)N[C@@H](Cc1ccccc1)C[C@H](O)[C@H](Cc1ccccc1)NC(=O)OCc1cccnc1 | 97 to 100 |
| CCC(=O)c1ccc(O)c(C)c1 | 83 to 85 |
| O=C(O)C1C=Nc2c(ccc3cc(C(=O)N4CCc5ccccc5C4)cnc23)C1=O (stereo unspecified) | 171 to 182 |
| C[C@]1(c2ccccc2)C[C@@]1(NS(=O)(=O)c1ccc(-c2cc(C(F)(F)F)on2)s1)C(=O)O | 130 to 132 |
| CNC1=Nc2sc(Cl)cc2C(c2ccccc2)=NC1 | 247 to 250 |
| CCc1nc(-c2ccc(OCCn3ccnc3)cc2)no1 | 81 to 82 |
| CCCc1c(OCCCS(=O)(=O)c2ccc(CC(=O)O)cn2)ccc(C(C)=O)c1O | 154 to 156 |
| Brc1ccn2nc(N3CCOCC3)nc2c1 | 178 to 179 |
| CS(=O)(=O)c1ccc(Oc2ccccc2CC(=O)O)cc1 | 125 to 127 |
| COc1ccc(S(=O)(=O)C(C)(Cc2ccc(OCCCN3CCN(c4cccc(Cl)c4)CC3)cc2)C(=O)NO)cc1 (stereo unspecified) | 122 |
| C(=C\c1nc(COc2ccc(CCCn3cccc3)cc2)co1)/c1ccccc1 | 108 to 109 |
| CCCCOC(=O)c1cc(NC(=O)C2=C(C)OCCS2)ccc1Cl | 71 to 73 |
| COC(=O)C1CCC2C3CCC4CC=CCC4(C)C3C(=O)CC12C (stereo unspecified) | 169 to 175 |
| CN1CCNC(C(=O)Cn2c(-c3cc(Cl)ccn3)nc3cccnc32)C1 (stereo unspecified) | 174 to 175 |
| CN(Cc1ccccc1)Cc1nc(-c2ncn3c2CN(C)C(=O)c2cc(F)ccc2-3)no1 | 161 to 162 |
| O=C1CN(c2ccccc2)C(=S)N1c1ccccc1 | 214 |
| Cc1cc(S(=O)(=O)C[N+](=O)[O-])c(C)cc1Cl | 113 to 114 |
| O=C1c2ccccc2C(=O)N1CCCCc1cc(-c2ccccn2)nc(-c2ccccn2)c1 | 128 |
| CC(C)N(C)c1ncc([N+](=O)[O-])cc1Cl | 56 to 57 |
